The results in this text go back to patent publication US12241114B2, “Biophysical platform for drug development based on energy landscape” (BRANDEIS UNIVERSITY, priority 2014, dated 2025).

Changes are numbered by the printed parent chain.

In one experiment the target is T1, Y199H modern Aurora A (Homo sapiens, UniProt O14965, T288V/Y199H).
T1 sequence (O14965 122-403 Y199H/T288V): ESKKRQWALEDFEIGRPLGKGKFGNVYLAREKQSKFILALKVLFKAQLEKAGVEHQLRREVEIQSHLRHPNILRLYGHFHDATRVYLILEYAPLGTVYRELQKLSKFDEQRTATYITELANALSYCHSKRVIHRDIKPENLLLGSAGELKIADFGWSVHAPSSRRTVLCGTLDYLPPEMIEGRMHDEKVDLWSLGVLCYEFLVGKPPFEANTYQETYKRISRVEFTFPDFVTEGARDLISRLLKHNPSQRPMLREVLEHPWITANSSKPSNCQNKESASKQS
In words: Isothermal titration calorimetry of TPX2 binding to Y199H Aurora A. The conditions noted are these: Y199H versus modern Aurora A. Here is the method:
FIGS. 33A-33C are plots and schematics showing Y199 is an Aurora A hotspot important in TPX2 binding.
All titrations were carried out using Nano ITC (TA instruments) and analyzed via the NanoAnalyze software using the independent fit model. Injectant was added in […] volume, every 180 s, with a constant stirring speed at 350 rpm and at 25° C. Prior to ITC titration, both protein and peptide were dialyzed/resuspended in 20 mM TrisHCl, 200 mM NaCl, 10% (v/v) glycerol, 1 mM TCEP, pH 7.50.
A general note: ITC needs no label: the signal is the heat of the interaction.

The target of experiment [1] is T2, unphosphorylated Aurora A (Homo sapiens, UniProt O14965).
T2 sequence (O14965 122-403): T1 sequence (O14965 122-403 Y199H/T288V) with H78Y, V167T
In words: Stopped-flow tryptophan fluorescence binding and dissociation kinetics on unphosphorylated Aurora A. Here is the method: The stopped-flow instrument is a SX20 series from AppliedPhotophysics.
In the following equations, K1, K2 and K3 equal to:
[formula] Error bars calculations of the dissociation constant parameter (calculated from the kinetics) are calculated using classical error propagation equations. Aurora A Wild-Type Binding to MantATP

Another experiment concerns the target T3, Aurora A wild-type (Homo sapiens, UniProt O14965).
T3 sequence (O14965 122-403): T1 sequence (O14965 122-403 Y199H/T288V) with H78Y, V167T
In words: FRET stopped-flow kinetics of MantATP binding to Aurora A. The conditions noted are these: 10° C., double exponential. Here is the method:
FRET using intrinsic tryptophan fluorescence is used to monitor MantATP binding kinetics to Aurora A at 10° C. […] In the release of MantATP experiment or koff, 10 μM/10 μM Aurora A/MantATP complex were diluted with buffer (ratio 1:10). A significant decrease in the fluorescence intensity of Aurora A (excitation at 295 nm, emission cut-off at 395 nm) can be seen due to the MantATP release.

In the case of “modern TPX2: modern-day TPX2 protein, allosteric activator of Aurora A, residues 1-45 (MSQVKSSYSYDAPSDFINFSSLDDEGDTQNIDSWFEEKANLENKL; UniProt Q9ULW0 1-45, looked up, fragment)”, in the experiment with Y199H modern Aurora A, the “weakening of binding by Y199H mutation of Aurora A” value is given as “approximately 20 fold”.
`Cc1ccc(NC(=O)c2ccc(CN3CCN(C)CC3)cc2)cc1Nc1nccc(-c2cccnc2)n1` [Gleevec]: the “apparent rate constant of dissociation” value in experiment [1] (10° C., after 10-fold dilution of the complex) was found to be 50 s⁻¹. Further, the “observed off rate, times faster than the Danusertib off rate” value in experiment [1] (Gleevec versus Danusertib) is on record as 10^6-10^7.
Take `CO[C@@H](C(=O)N1Cc2n[nH]c(NC(=O)c3ccc(N4CCN(C)CC4)cc3)c2C1)c1ccccc1` [Danusertib]: in experiment [1], the “tighter binding from the conformational change after drug binding” value is “three orders of magnitude” and the “weakening of overall affinity by the DFG-in/-out equilibrium” value came out at 20%. The dissociation kinetics entry in experiment [1] (25° C., after 30-fold dilution of the complex) was “slow, taking hours to be released”. Besides, the “Keq of the induced fit step” value in experiment [1] (25° C., global fit) is recorded as 5×10^−4.
For the molecule MantATP, the “plateau of second observed rate constant” value on Aurora A wild-type was “around 20 s^−1”.
